{"source": "patent US20180073018A1", "about": "“COMPOSITIONS AND METHODS FOR SPECIFIC REACTIVATION OF HIV LATENT RESERVOIR” (priority 2015, published 2018)", "system": "TZM-bI cells", "assay": "CellTiter-Glo luminescent cell viability assay in TZM-bI cells", "format": "cell-based", "details": "TZM-bI, 5,000 nM", "protocol": "FIG. 10A, FIG. 10B: TZM-bI cells were infected with indicated lentiviruses for 1 d and triple antibiotic selection with puromycin/hygromycin/zeoin (P/H/Z) was maintained for 4 d before passage, OneGlo luciferase reporter assay (FIG. 10A) and CellTiter-Glo® luminescent cell viability assay (FIG. 10B). FIG. 10C, FIG. 10D: CHME5 cells were infected with indicated lentiviruses and cultured for 5 d in the absence or presence of P/H/Z triple selection. Flow cytometry analysis was performed for reactivation efficiency (FIG. 10C) and total survival cell number (FIG. 10D). FIG. 10E: Caspase-Glo® 3/7 Assay was performed at 2 dpi to evaluate apoptotic cell death. […] FIG. 10F, FIG. 10G: The 2D10 cells were infected for 1 and 4 dpi, and the reactivation efficiency (FIG. 10F) and relative total survival cell number (FIG. 10G) were determined by flow cytometry. *p<0.05 and **p<0.01 indicate statistical significance by ANOVA and FLSD test.\nFIG. 12A, FIG. 12B, FIG. 12C: The dCas9-VPH stable TZM-bI cells were treated with SAHA or infected with indicated msgRNAs lentivirus for 2-4 d before luminescence reporter assay (FIG. 12A) and CELLTITER-GLO® luminescent cell viability assay (FIG. 12B). […]\nThe cell growth/proliferation was determined by the trypan blue exclusion hemocytometry, and CELLTITER-GLO luminescence viability assay (Promega). […]"}
{"smiles": "O=C(CCCCCCC(=O)Nc1ccccc1)NO", "note": "[SAHA, suberoylanilide hydroxamic acid]", "values": [{"measurement": "cell viability", "result": "killed all the cells"}]}
